Results from patent US11186581B2, “2-(1,3-dimethyl-2,6-dioxo-1,2,3,6-tetrahydro-7H-purin-7-yl)-N-(6-(2-hydroxyphenyl)pyridazin-3-yl)acetamide as a Wnt pathway modulator” (Agency for Science, Technology and Research, priority 2017, dated 2021).
Several values for one entry are separate records, joined by “and”; a condition that tells them apart may be missing. Equal values may be shown once. Read-outs that look alike come from different tables or passages of the source.

Assays:
[1] = Plasma pharmacokinetics after single intravenous and oral dose; format: in vivo, male BALB/c mice; settings: for concentration at 24 hr: average of two values
Method: The objective of this study was to investigate the plasma pharmacokinetics of Compound 1 in male BALB/c mice following a single intravenous and oral dose administration. A group of eighteen male mice were divided in to two groups as Group 1 and Group 2 with nine mice in each group.
Animals in Group 1 were administered intravenously with Compound 1 solution formulation in 7.5% NMP, 5% Solutol HS-15 and 87.5% normal Saline at a dose of 1 mg/kg.
Animals in Group 2 were administered orally with Compound 1 solution formulation in 7.5% NMP, 5% Solutol HS-15 and 87.5% normal Saline at a dose of 5 mg/kg.
Blood samples (approximately 60 μL) were collected under light isoflurane anesthesia from retro orbital plexus at predose, 0.08, 0.25, 0.5, 1, 2, 4, 8 and 24 hr (IV) and predose, 0.25, 0.5, 1, 2, 4, 6, 8 and 24 hr (PO). During each sampling point, blood samples were collected in labeled pre-chilled tubes containing K2EDTA (20% K2EDTA solution) as an anticoagulant and protease inhibitor (10 μL of 10× solution/100 μL of blood). Low temperature was maintained till storage of plasma at −70° C. Plasma samples were separated by centrifugation of whole blood and stored below −70° C. until bioanalysis. All samples were processed for analysis by protein precipitation using acetonitrile (ACN) and analyzed with fit-for-purpose LC/MS/MS method (Lower limit of quantitation (LLOQ: 1.02 ng/mL). Pharmacokinetic parameters were calculated using the non-compartmental analysis tool of Phoenix WinNonlin® (Version 6.3). The overall pharmacokinetic parameters are summarized below:
The objective of the study is to determine the plasma pharmacokinetics of Compound 1 in male BALB/c mice following a single intravenous (1 mg/kg) and oral (5 mg/kg) administration in presence of a protease inhibitor.
(§1) A group of eighteen male mice were divided in to two groups as Group 1 and Group 2 with nine mice in each group. Animals in Group 1 were administered intravenously with Compound 1 solution formulation in 7.5% NMP, 5% Solutol HS-15 and 87.5% normal Saline at a dose of 1 mg/kg. Animals in Group 2 were administered orally with Compound 1 solution formulation in 7.5% NMP, 5% Solutol HS and 87.5% normal Saline at a dose of 5 mg/kg.
The dosing volume administered was 5 mL/kg for intravenous and 10 mL/kg for oral administration.
Blood samples (approximately 60 μL) were collected from retro-orbital plexus of three mice at each time point [predose, 0.08, 0.25, 0.5, 1, 2, 4, 8 and 24 hr (IV) and predose, 0.25, 0.5, 1, 2, 4, 6, 8 and 24 hr (PO)]. During each sampling point, blood samples were collected in labeled pre-chilled tubes containing K2EDTA (20% K2EDTA solution) as an anticoagulant and protease inhibitor (10 μL of 10× solution/100 μL of blood). Low temperature was maintained till storage of plasma at −70° C. Plasma was immediately harvested from the blood by centrifugation at 4000 rpm for 10 min at 4±2° C. and stored below −70° C. until bioanalysis. Preparation of protease inhibitor solution: One tablet of sigmaFAST (Product Code: 58820) was reconstituted into 10 mL of Milli-Q water to prepare 10× solution.
Concentrations of Compound 1 in mouse plasma samples were determined by fit-for-purpose LC-MS/MS method. The sample processing and extraction procedure, chromatographic and mass spectrometric conditions are provided below:
A 25 μL of study sample (DF was applied for few samples) or spiked plasma calibration standard was added to individual pre-labeled micro-centrifuge tubes followed by 100 μL of internal standard prepared in acetonitrile (Glipizide, 500 ng/mL) was added except for blank, where 100 μL of acetonitrile was added. Samples were vortexed for 5 minutes. Samples were centrifuged for 10 minutes at a speed of 4000 rpm at 4° C. Following centrifugation, 100 μL of clear supernatant was transferred in 96 well plates and analyzed using LC-MS/MS.
Non-Compartmental-Analysis tool of Phoenix WinNonlin® (Version 6.3) was used to assess the pharmacokinetic parameters. […]

HEK293-STF3A cells = assay: STF3A assay (Wnt reporter luciferase); format: cell-based; settings: Homo sapiens, 24 h, 1 day of treatment, read-out: IC50 activities on STF3A cells
Method: HEK293-STF cell line was modified from Human embryonic kidney cell line HEK293 transfected with the STF reporter. HEK293-STF3 A cell line was further modified from HEK293-STF cell line to express Wnt3A. This cell line was used to identify compounds that regulate either early or late signalling components of the Wnt pathway. L-Wnt3 A (ATCC, #CRL-2647) cell line was used for providing Wnt3 A conditioned media. The three cell lines were grown in DMEM (Dulbecco's Modified Eagle Medium) with 10% FBS (fetal bovine serum) incubated in 37° C. with 5% CO2.
2×10^4 HEK293-STF3A cells in 75 μl culture media were seeded in each well of white 96 well plates (Greiner #655098) and incubated overnight at 37° C. 25 μl serially diluted compound was added to the cells to give final concentration of 50 μM to 1.5 nM. After 1 day of treatment, 100 μl of Steady-Glo® Luciferase Assay reagent (#E2520, Promega) was added to each well and incubated for 10 minutes at room temperature. Luminescence was measured using Tecan Safire2® plate reader.

[2] = Clinical observations after intravenous and oral dose administration; format: in vivo, male BALB/c mice; settings: after IV 1 mg/kg and PO 5 mg/kg single dose
Method: as §1

[3] = male, BALB/c, mouse, IV 1 mg/kg, plasma
[4] = male, BALB/c, mouse, PO 5 mg/kg, plasma

Cn1c(=O)c2c(ncn2CC(=O)Nc2ccc(-c3ccccc3O)nn2)n(C)c1=O [Compound 1, 2-(1,3-dimethyl-2,6-dioxo-1,2,3,6-tetrahydro-7H-purin-7-yl)-N-(6-(2-hydroxyphenyl)pyridazin-3-yl)acetamide]
Vss relative to normal volume of total body water (0.7 L/kg) ([1]; IV 1 mg/kg): ~2 fold
Plasma concentration, individual animals ([1]; IV 1 mg/kg, 0.08 hr, 1 mg/kg): 1220.50 ng/mL and 2541.20 ng/mL and 2233.92 ng/mL
Plasma concentration, individual animals ([1]; IV 1 mg/kg, 0.25 hr, 1 mg/kg): 1052.34 ng/mL and 1048.27 ng/mL
Plasma concentration, individual animals ([1]; IV 1 mg/kg, 0.5 hr, 1 mg/kg): 899.26 ng/mL and 894.59 ng/mL
Plasma concentration, individual animals ([1]; IV 1 mg/kg, 1 hr, 1 mg/kg): 151.52 ng/mL and 496.44 ng/mL and 268.90 ng/mL
Plasma concentration, individual animals ([1]; IV 1 mg/kg, 2 hr, 1 mg/kg): 60.16 ng/mL and 49.49 ng/mL
Plasma concentration, individual animals ([1]; IV 1 mg/kg, 4 hr, 1 mg/kg): 37.94 ng/mL and 27.10 ng/mL
Plasma concentration, individual animals ([1]; IV 1 mg/kg, 8 hr, 1 mg/kg): 6.59 ng/mL and 27.95 ng/mL and 8.94 ng/mL
Plasma concentration, individual animals ([1]; IV 1 mg/kg, 24 hr, below LLOQ considered zero, 1 mg/kg): 1.36 ng/mL and 1.10 ng/mL and 0.00 ng/mL
CL (expressed as CLf) ([1]; PO 5 mg/kg): 26.74 mL/min/kg
Vss (expressed as Vz) ([1]; PO 5 mg/kg): 7.55 L/kg
Time up to which plasma concentrations were quantifiable ([1]; PO 5 mg/kg, 2 animals out of 3, LLOQ 1.02 ng/mL): up to 24 hr
Plasma concentration, individual animals ([1]; PO 5 mg/kg, 0.25 hr, 5 mg/kg): 2450.80 ng/mL and 1426.54 ng/mL
Plasma concentration, individual animals ([1]; PO 5 mg/kg, 0.5 hr, 5 mg/kg): 2167.46 ng/mL and 1898.77 ng/mL and 1070.15 ng/mL
Plasma concentration, individual animals ([1]; PO 5 mg/kg, 1 hr, 5 mg/kg): 474.33 ng/mL and 433.52 ng/mL
Plasma concentration, individual animals ([1]; PO 5 mg/kg, 2 hr, 5 mg/kg): 331.78 ng/mL and 365.08 ng/mL
Plasma concentration, individual animals ([1]; PO 5 mg/kg, 4 hr, 5 mg/kg): 86.92 ng/mL and 503.47 ng/mL and 59.61 ng/mL
Plasma concentration, individual animals ([1]; PO 5 mg/kg, 6 hr, 5 mg/kg): 110.77 ng/mL and 81.54 ng/mL
Plasma concentration, individual animals ([1]; PO 5 mg/kg, 8 hr, 5 mg/kg): 41.28 ng/mL and 53.22 ng/mL
Plasma concentration, individual animals ([1]; PO 5 mg/kg, 24 hr, below LLOQ considered zero, 5 mg/kg): 0.00 ng/mL and 1.28 ng/mL and 2.31 ng/mL
concentration at 0.08 hr ([1]; male, BALB/c, mouse, plasma, iv, 1 mg/kg, IV 1 mg/kg, 0.08 hr): 2000 ng/mL
concentration at 0.25 hr ([1]; male, BALB/c, mouse, plasma, iv, 1 mg/kg, IV 1 mg/kg, 0.25 hr, read-out: Plasma concentration, Mean): 1020 ng/mL
concentration at 0.25 hr ([1]; male, BALB/c, mouse, plasma, iv, 1 mg/kg, IV 1 mg/kg, 0.25 hr, read-out: Plasma concentration, individual animals): 948 ng/mL
concentration at 0.5 hr ([1]; male, BALB/c, mouse, plasma, iv, 1 mg/kg, IV 1 mg/kg, 0.5 hr, read-out: Plasma concentration, Mean): 915 ng/mL
concentration at 0.5 hr ([1]; male, BALB/c, mouse, plasma, iv, 1 mg/kg, IV 1 mg/kg, 0.5 hr, read-out: Plasma concentration, individual animals): 952 ng/mL
concentration at 1 hr ([1]; male, BALB/c, mouse, plasma, iv, 1 mg/kg, IV 1 mg/kg, 1 hr, read-out: Plasma concentration, Mean): 306 ng/mL
concentration at 2 hr ([1]; male, BALB/c, mouse, plasma, iv, 1 mg/kg, IV 1 mg/kg, 2 hr, read-out: Plasma concentration, Mean): 50.7 ng/mL
concentration at 2 hr ([1]; male, BALB/c, mouse, plasma, iv, 1 mg/kg, IV 1 mg/kg, 2 hr, read-out: Plasma concentration, individual animals): 42.5 ng/mL
concentration at 4 hr ([1]; male, BALB/c, mouse, plasma, iv, 1 mg/kg, IV 1 mg/kg, 4 hr, read-out: Plasma concentration, Mean): 34.7 ng/mL
concentration at 4 hr ([1]; male, BALB/c, mouse, plasma, iv, 1 mg/kg, IV 1 mg/kg, 4 hr, read-out: Plasma concentration, individual animals): 39.2 ng/mL
concentration at 8 hr ([1]; male, BALB/c, mouse, plasma, iv, 1 mg/kg, IV 1 mg/kg, 8 hr, read-out: Plasma concentration, Mean): 14.5 ng/mL
concentration at 24 hr ([1]; male, BALB/c, mouse, plasma, iv, 1 mg/kg, IV 1 mg/kg, 24 hr): 1.23 ng/mL
concentration at 0.25 hr ([1]; male, BALB/c, mouse, plasma, po, 5 mg/kg, PO 5 mg/kg, 0.25 hr, read-out: Plasma concentration, Mean): 1860 ng/mL
concentration at 0.25 hr ([1]; male, BALB/c, mouse, plasma, po, 5 mg/kg, PO 5 mg/kg, 0.25 hr, read-out: Plasma concentration, individual animals): 1690 ng/mL
concentration at 0.5 hr ([1]; male, BALB/c, mouse, plasma, po, 5 mg/kg, PO 5 mg/kg, 0.5 hr, read-out: Plasma concentration, Mean): 1710 ng/mL
concentration at 1 hr ([1]; male, BALB/c, mouse, plasma, po, 5 mg/kg, PO 5 mg/kg, 1 hr, read-out: Plasma concentration, Mean): 457 ng/mL
concentration at 1 hr ([1]; male, BALB/c, mouse, plasma, po, 5 mg/kg, PO 5 mg/kg, 1 hr, read-out: Plasma concentration, individual animals): 462 ng/mL
concentration at 2 hr ([1]; male, BALB/c, mouse, plasma, po, 5 mg/kg, PO 5 mg/kg, 2 hr, read-out: Plasma concentration, Mean): 411 ng/mL
concentration at 2 hr ([1]; male, BALB/c, mouse, plasma, po, 5 mg/kg, PO 5 mg/kg, 2 hr, read-out: Plasma concentration, individual animals): 535 ng/mL
concentration at 4 hr ([1]; male, BALB/c, mouse, plasma, po, 5 mg/kg, PO 5 mg/kg, 4 hr, read-out: Plasma concentration, Mean): 217 ng/mL
concentration at 6 hr ([1]; male, BALB/c, mouse, plasma, po, 5 mg/kg, PO 5 mg/kg, 6 hr, read-out: Plasma concentration, Mean): 91.8 ng/mL
concentration at 6 hr ([1]; male, BALB/c, mouse, plasma, po, 5 mg/kg, PO 5 mg/kg, 6 hr, read-out: Plasma concentration, individual animals): 83.2 ng/mL
concentration at 8 hr ([1]; male, BALB/c, mouse, plasma, po, 5 mg/kg, PO 5 mg/kg, 8 hr, read-out: Plasma concentration, Mean): 45.8 ng/mL
concentration at 8 hr ([1]; male, BALB/c, mouse, plasma, po, 5 mg/kg, PO 5 mg/kg, 8 hr, read-out: Plasma concentration, individual animals): 43 ng/mL
concentration at 24 hr ([1]; male, BALB/c, mouse, plasma, po, 5 mg/kg, PO 5 mg/kg, 24 hr): 1.8 ng/mL
half-life ([1]; male, BALB/c, mouse, plasma, IV 1 mg/kg, terminal elimination half-life, read-out: T1/2 (converted)): 4.24 h
Vd ([1]; male, BALB/c, mouse, plasma, IV 1 mg/kg, read-out: Vss): 1.2 L/kg
Tmax ([1]; male, BALB/c, mouse, plasma, PO 5 mg/kg): 0.25 h
bioavailability ([1]; male, BALB/c, mouse, plasma, PO 5 mg/kg vs IV 1 mg/kg, solution, from AUClast, read-out: % F (oral bioavailability)): 42%
half-life ([1]; male, BALB/c, mouse, plasma, PO 5 mg/kg, read-out: T1/2 (expressed as T1/2Z) (converted)): 3.26 h
AUC(0-inf) [1, 3]: 1490 ng·h/mL
AUC(0-t) [1, 3]: 1480 ng·h/mL
clearance ([1]; male, BALB/c, mouse, IV 1 mg/kg, plasma clearance): 11.2 mL/min/kg
C0 ([1]; male, BALB/c, mouse, IV 1 mg/kg, plasma, read-out: C0 (back extrapolated conc.)): 2750 ng/mL
AUC(0-inf) [1, 4]: 3120 ng·h/mL
AUC(0-t) [1, 4]: 3110 ng·h/mL
Cmax [1, 4]: 1860 ng/mL
IC50 (HEK293-STF3A cells): 9 nM
Clinical signs [2]: normal and without any clinical signs
